38 compounds from patent publication US20030216398A1, “Soluble beta amyloid precursor protein secretion promoters” (priority 2002, published 2003) can be followed below.

Counter-ions that a name gives are not always drawn.

Consider `COc1ccc(C(=O)N2CCC(Nc3ccc4ncccc4c3)c3ccccc32)cc1OC` (centres unmarked) [Example 21, 1-(3,4-Dimethoxybenzoyl)-N-(6-quinolinyl)-1,2,3,4-tetrahydro-4-quinolinamine], for which the melting point is 116 to 118 °C.

The compound `COc1ccc(C(=O)N2CCC(Nc3ccccc3)c3ccccc32)cc1OC` (centres unmarked) [Example 17, 1-(3,4-Dimethoxybenzoyl)-N-phenyl-1,2,3,4-tetrahydro-4-quinolinamine] had a melting point of 155 to 156 °C.

The compound `COc1ccc(C(=O)N2CCC(Nc3ccc(C)c(Cl)c3)c3ccccc32)cc1OC` (centres unmarked) [Example 38, N-(3-Chloro-4-methylphenyl)-1-(3,4-dimethoxybenzoyl)-1,2,3,4-tetrahydro-4-quinolinamine] displayed a melting point of 94 to 96 °C.

`COc1ccc(C(=O)N2CCC(N(C)c3ccc(Cl)cc3)c3ccccc32)cc1OC` (centres unmarked) [Example 36, N-(4-Chlorophenyl)-1-(3,4-dimethoxybenzoyl)-N-methyl-1,2,3,4-tetrahydro-4-quinolinamine]: the melting point lay within 72 to 74 °C.

`COc1ccc(C(=O)N2CCC(Nc3ccccc3Cl)c3ccccc32)cc1OC` (centres unmarked) [Example 23, N-(2-Chlorophenyl)-1-(3,4-dimethoxybenzoyl)-1,2,3,4-tetrahydro-4-quinolinamine] gave a melting point of 92 to 93 °C.

Consider `COc1ccc(C(=O)N2CCC(Nc3ccccc3C(C)C)c3ccccc32)cc1OC.Cl` (centres unmarked), for which the melting point lay within 93 to 96 °C.

Turning to `CC1CC(Nc2ccccc2)c2ccccc2N1C(=O)c1ccc2c(c1)OCO2` (stereo not drawn) [Example 5, cis-1-(1,3-Benzoxol-5-ylcarbonyl)-2-methyl-N-phenyl-1,2,3,4-tetrahydro-4-quinolinamine], the melting point was 175 °C.

Compound `CCC1CC(N(C)c2ccccc2)c2ccccc2N1C(=O)c1ccc(OC)c(OC)c1` (centres unmarked) [Example 54, 1-(3,4-Dimethoxybenzoyl)-2-ethyl-N-methyl-N-phenyl-1,2,3,4-tetrahydro-4-quinolinamine] showed a melting point of 146 to 148 °C.

Compound `COc1ccc(C(=O)N2c3ccccc3C(Nc3ccc(Cl)cc3Cl)CC2C)cc1OC` (centres unmarked) [Example 43, N-(2,4-Dichlorophenyl)-1-(3,4-dimethoxybenzoyl)-2-methyl-1,2,3,4-tetrahydro-4-quinolinamine] gave a melting point of 165 to 167 °C.

`COc1ccc(C(=O)N2CCC(Nc3ccccc3)c3ccc(Cl)cc32)cc1OC` (centres unmarked) [Example 50, 7-Chloro-1-(3,4-dimethoxybenzoyl)-N-phenyl-1,2,3,4-tetrahydro-4-quinolinamine] displayed a melting point of 125 to 126 °C.

Compound `COc1ccc(C(=O)N2CCC(N(C)c3ccccc3)c3ccccc32)cc1OC` (centres unmarked) [Example 18, 1-(3,4-Dimethoxybenzoyl)-N-methyl-N-phenyl-1,2,3,4-tetrahydro-4-quinolinamine] returned a melting point of 143 to 144 °C.

With `C[C@H]1C[C@@H](Nc2ccccc2)c2ccccc2N1C(=O)c1ccncc1` (relative stereo) (hydrate or solvate) [Example 3, cis-1-Isonicotinoyl-2-methyl-N-phenyl-1,2,3,4-tetrahydro-4-quinolinamine], the melting point came to 210 °C.

`COc1ccc(C(=O)N2c3ccccc3[C@H](N(C)c3ccccc3)C[C@@H]2C)cc1OC` (racemic) [Example 28, cis-1-(3,4-Dimethoxybenzoyl)-N,2-dimethyl-N-phenyl-1,2,3,4-tetrahydro-4-quinolinamine] had a melting point of 180 to 181 °C.

`COc1ccc(C(=O)N2CCC(Nc3ccccc3Cl)c3ccc(Cl)cc32)cc1OC` (centres unmarked) (as salt: hydrochloride) [Example 51, 7-Chloro-N-(2-chlorophenyl)-1-(3,4-dimethoxybenzoyl)-1,2,3,4-tetrahydro-4-quinolinamine Hydrochloride] gave a melting point of 74 to 76 °C.

`COc1ccc(C(=O)N2CCC(Nc3ccccc3F)c3ccccc32)cc1OC` (centres unmarked) [Example 24, 1-(3,4-Dimethoxybenzoyl)-N-(2-fluorophenyl)-1,2,3,4-tetrahydro-4-quinolinamine] gave a melting point of 133 to 134 °C.

Take `COc1ccc(C(=O)N2CCC(Nc3ccccn3)c3ccccc32)cc1OC` (centres unmarked) [Example 22, 1-(3,4-Dimethoxybenzoyl)-N-(2-pyridinyl)-1,2,3,4-tetrahydro-4-quinolinamine]: the melting point lay within 156 to 157 °C.

The compound `COc1ccc(C(=O)N2c3ccccc3C(Nc3ccccc3Cl)CC2C)cc1OC` (centres unmarked) [Example 27, N-(2-Chlorophenyl)-1-(3,4-dimethoxybenzoyl)-2-methyl-1,2,3,4-tetrahydro-4-quinolinamine] yielded a melting point of 148 to 150 °C.

Compound `COc1cc(C(=O)N2c3ccccc3C(Nc3ccccc3)CC2C)cc(OC)c1OC` (stereo not drawn) [Example 6, cis-2-Methyl-N-phenyl-1-(3,4,5-trimethoybenzoyl)-1,2,3,4-tetrahydro-4-quinolinamine] showed a melting point of 300 °C.

Take `COc1ccc(C(=O)N2CCC(Nc3ccccc3)c3cc(Cl)ccc32)cc1OC` (centres unmarked) [Example 48, 6-Chloro-1-(3,4-dimethoxybenzoyl)-N-phenyl-1,2,3,4-tetrahydro-4-quinolinamine]: the melting point lay within 188 to 189 °C.

In turn, `C[C@H]1C[C@@H](Nc2ccccc2)c2ccccc2N1C(=O)c1ccc(-c2ccc(Cl)cc2)cc1` (relative stereo) [Example 52, cis-1-[(4′-Chloro[1,1′-biphenyl]-4-yl)carbonyl]-2-methyl-N-phenyl-1,2,3,4-tetrahydro-4-quinolinamine] had a melting point of 193 to 194 °C.

In the case of `COc1ccc(C(=O)N2CCC(Nc3ccc(Br)cc3)c3ccccc32)cc1OC` (centres unmarked) [Example 34, N-(4-Bromophenyl)-1-(3,4-dimethoxybenzoyl)-1,2,3,4-tetrahydro-4-quinolinamine], the melting point came to 130 °C.

Consider `C[C@H]1C[C@H](Nc2ccccc2)c2ccccc2N1C(=O)c1ccc2c(c1)OCO2` (relative stereo) [Example 7, Trans-1-(1,3-Benzodioxol-5-ylcarbonyl)-2-methyl-N-phenyl-1,2,3,4-tetrahydro-4-quinolinamine], for which the melting point was found to be 175 °C.

Regarding `COc1ccc(C(=O)N2CCC(N(C)c3ccccc3C)c3ccccc32)cc1OC` (centres unmarked) [Example 25, 1-(3,4-Dimethoxybenzoyl)-N-methyl-N-(2-methylphenyl)-1,2,3,4-tetrahydro-4-quinolinamine], the melting point was 170 to 171 °C.

The compound `COc1ccc(C(=O)N2c3ccccc3[C@@H](Nc3cccc(C)n3)C[C@@H]2C)cc1OC` (relative stereo) [Example 13, Trans-1-(3,4-Dimethoxybenzoyl)-2-methyl-N-(6-methyl-2-pyridinyl)-1,2,3,4-tetrahydro-4-quinolinamine] registered a melting point of 184 to 186 °C.

In turn, `C[C@H]1C[C@@H](Nc2ccccc2)c2ccccc2N1C(=O)c1ccncc1` (relative stereo) [Example 3, cis-1-Isonicotinoyl-2-methyl-N-phenyl-1,2,3,4-tetrahydro-4-quinolinamine] displayed a melting point of 121 °C.

`COc1cc(C(=O)N2c3ccccc3[C@@H](Nc3ccccc3)C[C@@H]2C)cc(OC)c1OC` (relative stereo) [Example 8, Trans-2-Methyl-N-phenyl-1-(3,4,5-trimethoxybenzoyl)-1,2,3,4-tetrahydro-4-quinolinamine] showed a melting point of 205 °C.

Compound `COc1ccc(C(=O)N2CCN(Cc3ccc(-c4ccccc4)cc3)c3ccccc32)cc1OC` [Example 42, 1-([1,1′-Biphenyl]-4-ylmethyl)-4-(3,4-dimethoxybenzoyl)-1,2,3,4-tetrahydroquinoxaline] yielded a melting point of 133 to 134 °C.

`COc1ccc(C(=O)N2CCC(Oc3ccc(Br)cc3)c3ccccc32)cc1OC` (centres unmarked) [Example 19] came in with a melting point of 56 to 57 °C.

`COc1ccc(C(=O)N2CCC(Nc3c(Cl)cccc3Cl)c3ccccc32)cc1OC` (centres unmarked) [Example 26, N-(2,6-Dichlorophenyl)-1-(3,4-dimethoxybenzoyl)-1,2,3,4-tetrahydro-4-quinolinamine]: the melting point lay in the range of 154 to 156 °C.

As for `C[C@H]1C[C@@H](Nc2ccccc2)c2ccccc2N1C(=O)c1ccccn1` (relative stereo) [Example 4, cis-2-Methyl-N-phenyl-1-(2-pyridinylcarbonyl)-1,2,3,4-tetrahydro-4-quinolinamine], the melting point was 157 °C.

Consider `COc1ccc(C(=O)N2CCC(N(C)c3ccccc3Cl)c3ccccc32)cc1OC` (centres unmarked) [Example 35, N-(2-Chlorophenyl)-1-(3,4-dimethoxybenzoyl)-N-methyl-1,2,3,4-tetrahydro-4-quinolinamine], for which the melting point lay in the range of 146 to 147 °C.

As to `COc1ccc(C(=O)N2c3ccccc3C(Nc3ccc(Br)cc3)CC2C)cc1OC` (centres unmarked) [Example 12, N-(4-Bromophenyl)-1-(3,4-dimethoxybenzoyl)-2-methyl-1,2,3,4-tetrahydro-4-quinolinamine], the melting point was in the range of 173 to 175 °C.

`COc1ccc(C(=O)N2CCN(Cc3ccccc3)c3ccccc32)cc1OC` [Example 20, 1-Benzyl-4-(3,4-dimethoxybenzoyl)-1,2,3,4-tetrahydroquinoxaline] returned a melting point of 111 to 112 °C.

With `COc1ccc(C(=O)N2CCC(Nc3ccccc3Cl)c3cc(Cl)ccc32)cc1OC` (centres unmarked) [Example 39, 6-Chloro-N-(2-chlorophenyl)-1-(3,4-dimethoxybenzoyl)-1,2,3,4-tetrahydro-4-quinolinamine], the melting point lay within 87 to 89 °C.

With `COc1ccc(C(=O)N2CCC(Nc3cccc(Cl)c3)c3ccccc32)cc1OC` (centres unmarked) [Example 32, N-(3-Chlorophenyl)-1-(3,4-dimethoxybenzoyl)-1,2,3,4-tetrahydro-4-quinolinamine], the melting point amounted to 160 °C.

Regarding `COc1ccc(C(=O)N2CCC(Nc3ccc(Cl)cc3)c3cc(Cl)ccc32)cc1OC` (centres unmarked) [Example 47, 6-Chloro-N-(4-chlorophenyl)-1-(3,4-dimethoxybenzoyl)-1,2,3,4-tetrahydro-4-quinolinamine], the melting point is 176 to 178 °C.

`COc1ccc(C(=O)N2CCC(Nc3ccc4c(c3)OCO4)c3ccccc32)cc1OC` (centres unmarked) [Example 31, N-(1,3-Benzodioxol-5-yl)-1-(3,4-dimethoxybenzoyl)-1,2,3,4-tetrahydro-4-quinolinamine] yielded a melting point of 135 to 136 °C.

`COc1ccc(C(=O)N2CCC(Nc3ccc(Cl)cc3)c3ccccc32)cc1OC` (centres unmarked) [Example 14, N-(4-chlorophenyl)-1-(3,4-dimethoxybenzoyl)-1,2,3,4-tetrahydro-4-quinolinamine] had a melting point of 131 °C.

What is called melting point is the temperature, or range, at which the solid turns liquid.
